SMILES strings stand for the structures.

Series [1] deals with T1, porcine pancreatic lipase (from pancreatin) (Sus scrofa, UniProt P00591).
T1 construct: pancreatin (Porcine, USP×8, P7585); purchased Sigma-Aldrich P7585; host or cells: porcine pancreas extract (pancreatin)
T1 sequence (P00591 1-450): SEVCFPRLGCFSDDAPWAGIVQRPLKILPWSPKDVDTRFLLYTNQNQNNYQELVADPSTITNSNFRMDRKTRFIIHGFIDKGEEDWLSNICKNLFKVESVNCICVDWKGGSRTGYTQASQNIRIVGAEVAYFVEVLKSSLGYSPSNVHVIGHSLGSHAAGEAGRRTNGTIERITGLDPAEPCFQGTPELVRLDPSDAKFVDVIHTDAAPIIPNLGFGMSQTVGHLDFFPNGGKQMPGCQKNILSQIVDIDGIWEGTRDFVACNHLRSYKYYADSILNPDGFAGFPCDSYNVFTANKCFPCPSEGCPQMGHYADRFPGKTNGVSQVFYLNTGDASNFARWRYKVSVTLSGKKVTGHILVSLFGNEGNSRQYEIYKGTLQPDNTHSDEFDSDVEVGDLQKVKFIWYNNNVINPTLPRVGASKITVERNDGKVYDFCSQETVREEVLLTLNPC
T1 sequence (P02703 23-112 partner): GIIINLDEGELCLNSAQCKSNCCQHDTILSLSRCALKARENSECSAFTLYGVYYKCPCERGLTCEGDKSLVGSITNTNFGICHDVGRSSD
The series can be described thus: In vitro digestion, simulated intestinal fluid (SIF) model, pH-stat. In kind it is in vitro ADME. Particulars: SIF alone; 200 mg fat emulsion, pH 6.8, 37° C.
Description: (§1) The lipid emulsion (2 mL) containing 200 mg of fat was subjected to gastrointestinal in vitro lipolysis. […] For gastric digestion, the sample was incubated for 90 minutes with 8.5 mL of simulated gastric fluid (SGF), which consisted of 150 mM NaCl, 450 U/mL pepsin, 18 U/mL rabbit gastric lipase at 37° C. and a pH of 5.5.
The intestinal digestion step was performed in the pH stat where the pH was kept constant at 6.8 by addition of NaOH (0.05 M). […] The intestinal digestion step starts when the temperature reaches 37±0.5° C. The pH was adjusted to pH 6.8 and after incubation of two minutes at this pH and temperature, a pancreatin solution (5 mM tris, 150 mM NaCl at pH 6.8) was added. […] During the intestinal phase of digestion, the kinetics of digestion were followed using a pH-stat (TIM856, Radiometer) technique and expressed as titratable acid (rather than fatty acid) that was calculated by the equation: […]
(§2) Since the digestion of dietary lipids involves lipases of both gastric and intestinal origin, lipid digestibility was assessed using two digestion models i) simulated intestinal fluid (SIF) with porcine pancreatic lipase (PPL) and ii) sequential digestion in simulated gastric fluid (SGF) with rabbit gastric lipase (RGL) followed by simulated intestinal fluid (SIF) with porcine pancreatic lipase (PPL).

For series [2], the system named is rabbit gastric lipase (RGL) followed by porcine pancreatic lipase (PPL). The series can be described thus: In vitro sequential digestion SGF followed by SIF, pH-stat. Type of series: in vitro ADME.
Description: as §1
The intestinal digestion step was performed in the pH stat where the pH was kept constant at 6.8 by addition of NaOH (0.05 M). […] The intestinal digestion step starts when the temperature reaches 37±0.5° C. The pH was adjusted to pH 6.8 and after incubation of two minutes at this pH and temperature, a pancreatin solution (5 mM tris, 150 mM NaCl at pH 6.8) was added. The final composition of the intestinal fluid was 10 mM CaCl2), 12 mM mixed bile salts, 0.75 mM phospholipid, 150 mM NaCl and 4 mM tris(hydroxymethyl)aminomethane buffer. The intestinal digestion step was carried out for 3 hours in a titration manager from Radiometer. During the intestinal phase of digestion, the kinetics of digestion were followed using a pH-stat (TIM856, Radiometer) technique and expressed as titratable acid (rather than fatty acid) that was calculated by the equation:
TA: Total titratable acid released, mmol; VNaOH: volume of NaOH used to titrate the released acid in 3 h, mL.
as §2

For the molecule `CCCC(=O)OCC(COC(=O)CCC)OC(=O)CCC` [tributyrin], the “initial rate of lipolysis” value in series [1] is 223 ± 59 µmol/min. For the same molecule, in series [2] (SGF-SIF sequential digestion, 200 mg fat emulsion), the “initial lipolysis rate in SIF after SGF” value was 44.1 ± 8.8 µmol/min. In series [2] (in words), the “extent of hydrolysis in the stomach (gastric lipolysis)” value is listed as “extensive hydrolysis in the stomach”. Moreover, the “lipolysis by gastric lipase” value in series [2] (indicated by decreased total fatty acid release in SIF after RGL in SGF) is ~60%.

Source of the values: patent US20210038554A1, “DIETARY BUTYRATE” (SOCIETE DES PRODUITS NESTLE S.A., priority 2018, published 2021).
